Experiments:
human CYP11B2 = human CYP11B2 (Homo sapiens (Human), UniProt P19099); experiment: V79-Human-CYP11B2 cell assay, modified protocol; type: cell-based; details: V79 cells expressing human CYP11B2
Protocol: (§1) V79 cell lines stably expressing the either the human CYP11B2 or the human CYP11B1 enzyme were generated using a standard transfection protocol. V79 cells were transfected with plasmids pTriEx3-Hygro-hCyp11B2 or pTriEx3-Hygro-hCyp11B1 using Lipofectamine2000 reagent. V79 cells that stably express the human CYP11B2 or human CYP11B1 enzyme were selected for and maintained in DMEM supplemented with 10% FBS and 400 μg/mL hygromycin for 2 weeks. Single cell clones were generated by infinite dilution in DMEM supplemented with 10% FBS and 400 μg/mL hygromycin until single colonies were obtained. […] For testing of inhibitors, cells were harvested at 80% confluency with 0.05% Trypsan-EDTA, washed once in PBS, and reconstituted in DMEM+0.1% BSA media at a cell concentration of 600,000 cells/mL for the CYP11B2 assay and 280,000 cells/mL for the CYP11B1 assay. 25 μL of cells were added to a 384 well tissue culture treated plate and mixed with 0.3 μL of inhibitor or DMSO (1% final DMSO concentration) for 1 hour at 37° C., 5% CO2. After pre-incubation with inhibitor, the reaction was initiated by adding 5 μL of substrate (final concentration of 125 nM 11-deoxycorticosterone for the CYP11B2 assay or 250 nM 11-deoxycortisol for the CYP11B1 assay). The reaction was carried out for 3 hours at 37° C., 5% CO2 and was stopped by harvesting the supernatants. The amount of product in the supernatant (aldosterone for CYP11B2 assay and cortisol for the CYP11B1 assay) was measured using HTRF-based assay kit (Aldosterone HTRF-CisBio#64ALDPEB, Cortisol HTRF-CisBio #63IDC002-CORT). IC50s for the inhibitor were determined by plotting the amount of product formed against the concentration of inhibitor using sigmoidal dose-response curve (variable slope) fit in GraphPad.
(§2) For the CYP11B2 assay, cells were reconstituted in DMEM+0.1% BSA media at a cell concentration of 600,000 cells/mL and for the CYP11B1 assay cells were reconstituted in DMEM+0.1% BSA media at a cell concentration of 280,000 cells/mL. 25 μl of cells were added to a 384 well tissue culture treated plate and mixed with […] or DMSO (1% final DMSO concentration) for 1 hour at 37° C., 5% CO2.

human CYP11B1 = human CYP11B1 (Homo sapiens (Human), UniProt P15538); experiment: V79-Human-CYP11B1 cell assay, modified protocol; type: cell-based; details: V79 cells expressing human CYP11B1
human CYP11B1, sequence (P15538 25-503): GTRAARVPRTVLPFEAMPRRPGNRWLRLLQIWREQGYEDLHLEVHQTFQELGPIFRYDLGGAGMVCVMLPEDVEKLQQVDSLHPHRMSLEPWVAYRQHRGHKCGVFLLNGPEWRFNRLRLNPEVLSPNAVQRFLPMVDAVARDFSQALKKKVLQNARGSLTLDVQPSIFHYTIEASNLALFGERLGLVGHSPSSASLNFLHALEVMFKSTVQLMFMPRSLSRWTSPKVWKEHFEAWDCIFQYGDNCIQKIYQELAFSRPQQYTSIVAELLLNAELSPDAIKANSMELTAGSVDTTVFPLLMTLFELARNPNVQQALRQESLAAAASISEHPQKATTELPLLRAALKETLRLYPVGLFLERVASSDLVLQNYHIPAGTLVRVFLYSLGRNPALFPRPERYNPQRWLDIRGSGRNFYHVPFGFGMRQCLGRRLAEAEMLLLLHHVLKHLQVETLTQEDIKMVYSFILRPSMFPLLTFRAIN
Protocol: as §1, §2

human CYP11B2, sequence (P19099 25-503): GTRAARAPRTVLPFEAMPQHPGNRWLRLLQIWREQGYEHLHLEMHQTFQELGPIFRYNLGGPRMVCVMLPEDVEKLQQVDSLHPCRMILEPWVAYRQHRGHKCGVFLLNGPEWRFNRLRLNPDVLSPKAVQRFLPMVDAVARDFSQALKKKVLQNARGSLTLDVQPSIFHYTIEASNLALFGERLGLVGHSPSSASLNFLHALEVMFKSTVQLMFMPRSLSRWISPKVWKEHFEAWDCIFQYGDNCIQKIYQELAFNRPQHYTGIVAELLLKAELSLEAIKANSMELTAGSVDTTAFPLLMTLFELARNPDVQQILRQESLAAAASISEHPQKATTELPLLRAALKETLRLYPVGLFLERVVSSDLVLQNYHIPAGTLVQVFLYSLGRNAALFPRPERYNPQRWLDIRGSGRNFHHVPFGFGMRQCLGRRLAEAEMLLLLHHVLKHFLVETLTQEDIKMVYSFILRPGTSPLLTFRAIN

| IC50 (human CYP11B2) [nM] | IC50 (human CYP11B1) [nM] | SMILES |
| --- | --- | --- |
| 6 | 3380 | CC(=S)N1CCc2cc(-c3cccnc3)ccc21 [Example 34, 1-(5-(pyridin-3-yl)indolin-1-yl)ethanethione] |
| 23 | 1380 | CC(=O)n1ccc2cc(-c3cccnc3)ccc21 [Example 50, 1-Acetyl-5-pyridin-3-yl-1H-indole] |
| 16 | 803 | COc1cncc(-c2ccc3c(c2)CCN3C(C)=O)c1 [Example 54, 1-acetyl-5-(5-methoxypyridin-3-yl)-2,3-dihydro-1H-indole] |
| 2.2 | 366 | CC(=O)N1CCc2cc(-c3cnccc3C)ccc21 [Example 58, 1-acetyl-5-(4-methylpyridin-3-yl)-2,3-dihydro-1H-indole] |

Source: patent US9745282B2, “Indoline compounds as aldosterone synthase inhibitors” (Merck Sharp & Dohme Corp., priority 2012, dated 2017)
